Results: patent publication US20160051491A1, “NOVEL USE OF PINOSYLVIN FOR ANGIOGENESIS PROMOTION” (INDUSTRY-ACADEMIC COOPERATION FOUNDATION, DANKOOK UNIVERSITY, priority 2013, published 2016)

Experiments:
[1] = test system: Bovine aortic endothelial cells (BAECs); assay: Serum starvation-induced apoptosis of endothelial cells (apoptotic cell count under microscope); format: cell-based
Method: (§1) Bovine aortic endothelial cells (BAECs) were obtained from the descending thoracic aortas, and maintained in a growth medium (DMEM (1 g/L glucose, Life technologies, Inc.) containing 20% fetal bovine […] (FBS, Atlanta Biologicals) without antibiotics) at 37° C. in 5% CO2. The number of cells used for used in this study was between 3 generations and 10 generations, and they were allowed to grow in untreated culture dishes. Before drug treatment, BAECs were grown to confluency in a 5% CO2 incubator with growth media containing 50 μg/mL penicillin and 50 μg/mL streptomycin. The cells were then starved for between 4 hours and 24 hours in starvation media (DMEM supplemented with 0.5% FBS and 50 μg/mL penicillin and 50 μg/mL streptomycin).
[…] Since pinosylvin is not commercially available, it was synthesized as described (Park et al., Cell Physiol Biochem. 2011; 27(3-4): 353-62.). […]
Confluent BAECs were starved for more than 4 hours, treated with pinosylvin, and then incubated for an additional period of time (0 hours, 12 hours, 24 hours, and 48 hours) for the evaluation of time-dependent changes in apoptosis. […] For quantification, the present inventors counted the number of apoptotic cells in the same visual field.

[2] = test system: Bovine aortic endothelial cells (BAECs); assay: Etoposide-induced apoptosis, Hoechst 33258 staining of fragmented nuclei; format: cell-based; conditions: FIG. 1B
Method: as §1
For the apoptotic analysis, the confluent cells were incubated in 0.5% FBS-DMEM containing 0 μM or 100 μM etoposide (ETO, Sigma) or varying amounts of pinosylvin for 36 hours. […]
For Hoechst staining, the confluent cells were incubated with 0.5% FBS-DMEM containing 100 μM ETO without any compound (vehicle control) for 36 hours. […] After incubation, the stained cells were thoroughly washed with PBS and the nuclei were observed under a fluorescence microscope (Zeiss Autoplan 2) to confirm the occurrence of apoptosis.

caspase-3 = assay: Caspase-3 cleavage (Western blot) and caspase-3 colorimetric activity (Ac-DEVD-pNA) in BAEC lysates; format: cell-based, Bovine; conditions: FIGS. 1C and 1D
Method: Caspase-3 activity was measured with Ac-DEVD-pNA as a substrate using the caspase-3 Colorimetric Activity Assay Kit (Chemicon). Specifically, BAECs were grown to confluency in 20% FBS-DMEM and then starved for more than 8 hours. The cells were treated with various apoptotic agents (100 μM ETO) and then lysed. The cell lysates were reacted in a reaction buffer containing 236 μM Ac-DEVD-pNA with or without specific inhibitors (0.1 μM Ac-DEVD-CHO) in 96-well plates at 37° C. for 2 hours. Then, the caspase-3 activity was determined by measuring the absorbance of the reactions at 405 nm using a microplate reader (Bio-Rad, Model 550).
(§2) The BAECs were grown to confluency in 20% FBS-DMEM, washed with ice-cold PBS, scraped in 250 μL RIPA buffer (50 mM Tris, pH 7.5, 150 mM NaCl, 1% NP-40, 0.5% sodium deoxycholate, and 0.1% SDS), and solubilized for 15 minutes to prepare the cell lysates. All the solubilization procedures were performed at 4° C., and the protein content of the soluble cell lysates was measured using a Bio-Rad DC assay kit (Bio-Rad). The solution lysates (10 μg each) were resolved by SDS-PAGE. The resolved protein bands were then transferred to a polyvinylidene difluoride (PVDF) membrane (Bio-Rad) and probed with p-ERK (cell signaling), p-p38 MAP kinase (cell signaling), p-JNK (cell signaling), p-eNOS (cell signaling), p-Akt (cell signaling) and caspase-3 (cell signaling) for 1 hour to overnight. The membranes were then incubated with a secondary antibody at room temperature for 1 hour, where goat anti-rabbit IgG conjugated to alkaline phosphatase was used as a secondary antibody. Finally, the results were confirmed using a chemiluminescent detection method.

ERK = assay: Western blotting of p-ERK in BAECs; format: cell-based, Bovine; conditions: 1 pM pinosylvin, 0 to 60 minutes, serum-depleted BAECs, FIG. 2
Method: as §2

JNK = assay: Western blotting of p-JNK in BAECs; format: cell-based, Bovine; conditions: 1 pM pinosylvin, 0 to 60 minutes, serum-depleted BAECs, FIG. 2
Method: as §2

p38 MAP kinase = assay: Western blotting of p-p38 MAP kinase in BAECs; format: cell-based, Bovine; conditions: 1 pM pinosylvin, 0 to 60 minutes, serum-depleted BAECs, FIG. 2
Method: as §2

Akt = assay: Western blotting of p-Akt in BAECs; format: cell-based, Bovine; conditions: 1 pM pinosylvin, 0 to 60 minutes, serum-depleted BAECs, FIG. 2
Method: as §2

eNOS = assay: Western blotting of p-eNOS in BAECs; format: cell-based, Bovine; conditions: 1 pM pinosylvin, 0 to 60 minutes, serum-depleted BAECs, FIG. 2
Method: as §2

[3] = test system: Bovine aortic endothelial cells (BAECs); assay: Endothelial cell proliferation (microscopy, WST-1 assay); format: cell-based
Method: as §1
Cell proliferation was measured using a cell viability assay kit (Daeil Lab Service Co., LTD., Seoul, Korea). Specifically, confluent BAECs were serum-starved for 16 hours, and then various concentrations of pinosylvin or 20% serum were added and incubated. The cells were washed more than twice with PBS and reacted with the WST-1 reagent. The live cells were then measured at 450 nm using an ELISA microplate reader (Bio-Rad, Model 550).

[4] = test system: Bovine aortic endothelial cells (BAECs); assay: Endothelial cell migration (wound scrape); format: cell-based; conditions: 1 pM pinosylvin, FIG. 4A
Method: Confluent BAECs were treated twice with 2 mM thymidine for 18 hours and wounded with a pipette tip. Then, the cells were incubated in the starvation media for 20 hours with increasing amounts of pinosylvin: 1) no pinosylvin, 2) 1 pM pinosylvin, or 3) 1 pM pinosylvin with 2.5 mM L-NAME, in DMEM, respectively. The migrated cells were observed under a microscope and quantified by counting the number of the migrated cells in the wound area.

[5] = test system: Bovine aortic endothelial cells (BAECs); assay: Endothelial tube formation on ECM gel; format: cell-based; conditions: FIG. 4B
Method: ECM gel (Cell Biolabs Inc.) was thawed overnight at 4° C. Then, the thawed gel 50 μL was added into each well of the 96-well plates. To form a gel, the 96-well plates were incubated at 37° C. for 1 hour. Then, the BAEC suspension (1.5×10^4 cells/100 μL) containing no pinosylvin, 1 pM pinosylvin, or 1 pM pinosylvin with 2.5 mM L-NAME, in DMEM, respectively, was added into a gel and placed in a 5% CO2 incubator at 37° C. for 12 hours to 18 hours. Then, the endothelial cells were observed under a microscope to confirm tube formation.

| SMILES | starvation-induced apoptosis, apoptotic cells counted per visual field ([1]; 1 pM to 10 μM of pinosylvin, FIG. 1A bottom panel) | serum starvation-induced apoptosis (round and shrunken cells) ([1]; BAECs serum-starved for 72 hours, low dose of pinosylvin, FIG. 1A top panel) | fragmentation of the nuclei (Hoechst 33258 staining), ETO-induced ([2]; 1 pM pinosylvin together with 100 μM ETO) | ETO-induced caspase-3 activation (caspase-3; 1 pM pinosylvin, 100 μM ETO) | starvation-induced caspase-3 activation (caspase-3; 1 pM pinosylvin, serum-depleted cells) | ERK phosphorylation (ERK) | JNK phosphorylation (JNK) | p38 phosphorylation (p38 MAP kinase) | Akt phosphorylation (Akt) | eNOS phosphorylation (eNOS) | number of cells compared with untreated cells (microscope) ([3]; 1 pM pinosylvin, thirty percent confluent BAECs, FIG. 3A) | cell proliferation, WST-1 assay ([3]; DMEM with none or 20% serum, 24 hours, FIG. 3B) | cell migration [4] | effect of tube formation by pinosylvin when treated concurrently with L-NAME ([5]; 1 pM pinosylvin with 2.5 mM L-NAME (eNOS inhibitor)) | tube formation compared to the control group ([5]; 1 pM pinosylvin) | fragmentation of the nuclei (Hoechst 33258 staining) ([2]; cells treated with 100 μM ETO alone) | caspase-3 activation (caspase-3; 100 μM ETO) |
| --- | --- | --- | --- | --- | --- | --- | --- | --- | --- | --- | --- | --- | --- | --- | --- | --- | --- |
| Oc1cc(O)cc(/C=C/c2ccccc2)c1 [pinosylvin, 5-[(E)-2-phenylethenyl]benzene-1,3-diol] | inhibited | prevent serum starvation-induced apoptosis | markedly reduced level | inhibited | inhibited | remained largely unchanged | remained largely unchanged | remained largely unchanged | substantially promoted | substantially promoted | increased | promote cell proliferation regardless of the presence of serum | significantly promote cell migration | reduced | significantly increase tube formation |  |  |
| COc1cc([C@@H]2c3cc4c(cc3[C@@H](O[C@@H]3O[C@@H]5CO[C@@H](C)O[C@H]5[C@H](O)[C@H]3O)[C@H]3COC(=O)[C@H]23)OCO4)cc(OC)c1O [ETO, etoposide, reference compound] |  |  |  |  |  |  |  |  |  |  |  |  |  |  |  | detected | activate caspase-3 |
